Experiments:
[1] = target: T1, Cytochrome P450 2B6 (Homo sapiens, UniProt P20813); test: Inhibition of CYP2B6 (unknown origin) using Bupropion as substrate; format: ADME
T1 sequence (P20813 whole entry): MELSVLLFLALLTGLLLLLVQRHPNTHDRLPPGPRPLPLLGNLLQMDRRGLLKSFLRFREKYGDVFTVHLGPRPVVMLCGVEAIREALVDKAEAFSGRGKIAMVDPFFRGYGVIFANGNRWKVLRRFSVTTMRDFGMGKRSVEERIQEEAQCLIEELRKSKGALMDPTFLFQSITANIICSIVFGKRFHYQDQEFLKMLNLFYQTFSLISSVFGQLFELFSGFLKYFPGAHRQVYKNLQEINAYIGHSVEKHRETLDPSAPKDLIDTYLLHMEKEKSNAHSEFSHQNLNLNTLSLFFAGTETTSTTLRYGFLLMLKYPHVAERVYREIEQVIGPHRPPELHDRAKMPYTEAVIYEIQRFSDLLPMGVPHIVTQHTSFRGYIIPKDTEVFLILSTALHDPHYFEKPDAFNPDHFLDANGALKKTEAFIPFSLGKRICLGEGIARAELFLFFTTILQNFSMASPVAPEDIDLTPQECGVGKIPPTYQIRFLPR

[2] = target: ATP-dependent translocase ABCB1 (Homo sapiens, UniProt P08183); test: Inhibition of P-gp in human Caco-2 cells in presence of paclitaxel; format: cell-based
[3] = Metabolic stability in human liver microsome assessed as half life; format: ADME; details: liver microsomes
[4] = Metabolic stability in mouse liver microsome assessed as intrinsic clearance; format: ADME; details: microsomes
[5] = test system: MES-SA/Dx5; test: Cytotoxicity against human MES-SA/Dx5 cells at 1.28 uM incubated for 3 days by MTT assay relative to control; format: functional; details: time 3 day
[6] = target: T2, Broad substrate specificity ATP-binding cassette transporter ABCG2 (Homo sapiens, UniProt Q9UNQ0); test: Inhibition of BCRP (unknown origin) ATPase activity
T2 sequence (Q9UNQ0 whole entry): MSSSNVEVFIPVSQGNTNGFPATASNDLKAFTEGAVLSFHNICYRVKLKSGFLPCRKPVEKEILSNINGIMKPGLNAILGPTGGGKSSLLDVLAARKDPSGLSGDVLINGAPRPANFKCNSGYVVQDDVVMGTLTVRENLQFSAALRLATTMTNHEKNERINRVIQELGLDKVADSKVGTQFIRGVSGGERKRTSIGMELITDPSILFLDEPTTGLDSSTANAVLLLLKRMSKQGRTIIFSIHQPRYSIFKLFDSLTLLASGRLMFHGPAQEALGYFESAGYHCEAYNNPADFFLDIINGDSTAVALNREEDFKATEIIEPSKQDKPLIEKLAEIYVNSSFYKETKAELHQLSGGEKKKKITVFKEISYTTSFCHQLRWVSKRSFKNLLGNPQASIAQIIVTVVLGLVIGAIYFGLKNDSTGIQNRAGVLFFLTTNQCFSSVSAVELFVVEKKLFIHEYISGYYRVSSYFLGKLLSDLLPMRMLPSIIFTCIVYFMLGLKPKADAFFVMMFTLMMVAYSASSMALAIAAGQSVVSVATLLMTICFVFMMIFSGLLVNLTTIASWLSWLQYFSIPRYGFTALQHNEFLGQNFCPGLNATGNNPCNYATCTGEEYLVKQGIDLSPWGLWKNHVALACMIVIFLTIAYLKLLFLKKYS

[7] = Inhibition of CYP3A4 in mouse liver using luciferin-IPA as substrate microsome preincubated with compound for 10 mins followed by NADPH addition and measured after 5 mins; format: ADME, microsomes
[8] = Apparent permeability across apical to basolateral side in human Caco-2 cells assessed as drug recovery; format: ADME, cell-based; details: read-out: Drug recovery
[9] = Apparent permeability across basolateral to apical side in human Caco-2 cells assessed as drug recovery; format: ADME, cell-based; details: read-out: Drug recovery
[10] = Metabolic stability in mouse liver microsome assessed as half life; format: ADME; details: liver microsomes
[11] = Metabolic stability in human liver microsome assessed as intrinsic clearance; format: ADME; details: microsomes

ATP-dependent translocase ABCB1, sequence (P08183 whole entry): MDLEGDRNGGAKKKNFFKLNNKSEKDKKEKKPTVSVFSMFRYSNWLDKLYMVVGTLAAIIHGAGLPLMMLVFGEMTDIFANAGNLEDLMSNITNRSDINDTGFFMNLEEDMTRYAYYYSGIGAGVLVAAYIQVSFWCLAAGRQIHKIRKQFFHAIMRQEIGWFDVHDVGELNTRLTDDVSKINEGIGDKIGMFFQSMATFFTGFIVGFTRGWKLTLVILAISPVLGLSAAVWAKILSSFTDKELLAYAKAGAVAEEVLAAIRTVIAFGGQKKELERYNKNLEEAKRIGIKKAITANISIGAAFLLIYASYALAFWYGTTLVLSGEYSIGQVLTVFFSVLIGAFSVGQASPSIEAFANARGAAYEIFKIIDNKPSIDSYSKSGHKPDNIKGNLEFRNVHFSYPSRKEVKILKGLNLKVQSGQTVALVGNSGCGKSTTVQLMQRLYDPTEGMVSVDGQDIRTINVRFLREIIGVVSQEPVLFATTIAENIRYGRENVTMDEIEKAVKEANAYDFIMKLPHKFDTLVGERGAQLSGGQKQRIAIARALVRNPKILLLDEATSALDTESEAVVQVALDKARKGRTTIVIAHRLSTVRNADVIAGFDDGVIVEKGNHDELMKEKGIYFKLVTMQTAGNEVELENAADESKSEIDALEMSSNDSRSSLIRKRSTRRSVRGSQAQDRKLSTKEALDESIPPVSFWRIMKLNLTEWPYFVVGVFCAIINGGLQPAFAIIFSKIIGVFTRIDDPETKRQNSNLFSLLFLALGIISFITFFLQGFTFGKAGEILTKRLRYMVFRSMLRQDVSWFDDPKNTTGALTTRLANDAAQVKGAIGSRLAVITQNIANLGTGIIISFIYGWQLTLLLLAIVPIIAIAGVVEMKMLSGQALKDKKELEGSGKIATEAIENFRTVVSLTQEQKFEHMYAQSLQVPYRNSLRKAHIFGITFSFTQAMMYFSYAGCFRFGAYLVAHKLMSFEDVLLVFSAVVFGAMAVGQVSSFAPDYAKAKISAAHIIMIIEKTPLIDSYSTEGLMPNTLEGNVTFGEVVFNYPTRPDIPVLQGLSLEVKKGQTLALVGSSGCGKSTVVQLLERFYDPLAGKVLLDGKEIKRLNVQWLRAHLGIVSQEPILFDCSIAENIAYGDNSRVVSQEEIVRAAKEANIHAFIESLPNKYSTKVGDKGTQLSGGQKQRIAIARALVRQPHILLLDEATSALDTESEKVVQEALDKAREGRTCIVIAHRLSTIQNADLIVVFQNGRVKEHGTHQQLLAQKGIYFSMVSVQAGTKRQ

- IC50 [1]: 36000 nM
- IC50 [2]: 9 nM
- half-life [3]: 4.4 min
- CLH [4]: 38 µL/min/mg
- IC50 [6]: > 1250 nM
- IC50 [7]: 89 nM
- recovery [8]: 82%
- recovery [9]: 82%
- half-life [10]: 37 min
- CLH [11]: 300 µL/min/mg
Compound: COc1cc(NC(=O)c2cc(=O)c3ccccc3o2)c(C(=O)Nc2ccc(C3CCN(Cc4cccc(-n5ccnc5)c4)CC3)cc2)cc1OC
- Activity [5]: 0%
